Results from PMC3225327 (Journal of Biomedical Science, 2011).

Columns and labels:
PDE3 = experiment: Inhibition of PDE3 activity, two-step procedure; format: biochemical; settings: homogenate of guinea pig lungs or hearts
Method: (§1) Activities of PDE1~5 in the homogenate of guinea pig lungs or hearts were measured by a two-step procedure according to the previous method, using cAMP with [^3H]-cAMP or cGMP with [^3H]-cGMP as substrates. […] The reagents and homogenate were mixed on ice, and the reaction was initiated by transferring the mixture to a water bath at 37°C. Following a 30-min incubation, the reaction was stopped by transferring the reaction vessel to a bath of boiling water for 3 min. After cooling on ice, 20 μl of a 1 mg/ml solution of Crotalus atrox snake venom was added to the reaction mixture, and the mixture was incubated at 37°C for 10 min. Unreacted [^3H]-cAMP or [^3H]-cGMP was removed by the addition of 500 μl of a 1-in-1 Tris-HCl (40 mM) buffer suspension of Dowex resin (1 × 8-200) with incubation on ice for 30 min. Each tube was then centrifuged at 3700 g for 2 min, and 150 μl of the supernatant was removed for liquid scintillation counting. […] The total protein in each fraction used was assayed according to a previous method. PDE activities are reported as nmol/mg/min.

PDE4 = experiment: Inhibition of PDE4 activity, two-step procedure and Lineweaver-Burk analysis; format: biochemical, guinea pig
Method: as §1

PDE2 = experiment: Inhibition of PDE2 activity, two-step procedure; format: biochemical; settings: homogenate of guinea pig lungs or hearts
Method: as §1

[1] = tested on: duration of xylazine/ketamine-induced anesthesia; experiment: Xylazine/ketamine-induced anesthesia; settings: 10~100 μmol/kg s.c., 1 h before anesthesia
Method: After loss of the righting reflex (i.e., when a mouse remained on its back and no longer spontaneously righted itself to a prone position), the duration of anesthesia was measured until its return as the endpoint.

PDE1 = experiment: Inhibition of PDE1 activity, two-step procedure; format: biochemical; settings: homogenate of guinea pig lungs or hearts
Method: as §1

[2] = tested on: high-affinity rolipram-binding sites (HARBSs) of guinea pig brain cell membranes; experiment: Displacement of 2 nM [3H]-rolipram from high-affinity rolipram-binding sites (PDE4H)
Method: When the above-mentioned guinea pigs were sacrificed, the whole brains were removed and homogenized with a glass/Teflon homogenizer (Glas-Col, Terre Haute, IN, USA) in 10 volumes of cold medium (pH 6.5) containing 20 mM Bis-Tris, 2 mM benzamidine, 2 mM EDTA, 50 mM sodium chloride, 0.1 mM PMSF, and 1 mM dithiothreitol. At 4°C, the homogenate was centrifuged at 170 g for 5 min to remove connective tissues and blood vessels. The suspended homogenate was then re-centrifuged at 40,000 g for 30 min to separate the cytosolic and particulate portions. The particulate portion was re-suspended in a suspension at a concentration of 400 mg/ml (wet weight/volume), after washing three times with homogenizing buffer. The particulate portion mainly consisted of cell membranes. […] Briefly, the reaction buffer consisted of 50 mM Tris-HCl and 5 mM MgCl2 (pH 7.5). […] After 1 h, the reaction was terminated by moving the reaction vessel into crushed ice. Then the reaction mixture was transferred onto Whatman GF/B glass-fiber filters, which were soaked in a 0.3% polyethyleneimine solution in a mini-funnel.

[3] = tested on: ovalbumin-induced airway hyperresponsiveness; experiment: Airway hyperresponsiveness, barometric plethysmography (Penh) in OVA-sensitized and challenged mice; format: in vivo, BABL/c mice
Method: According to the schedule (Figure 1), ten female BABL/c mice in each group were sensitized by an intraperitoneal (i.p.) injection of 20 μg of OVA emulsified in 2.25 mg of an aluminum hydroxide gel, prepared from aluminum sulfate hexadecahydrate, in a total volume of 100 μl on days 0 and 14. On day 21, these mice were injected with (i.p.) 100 μl of a mixture of 1% OVA and Freund's complete adjuvant (1:1). Mice were challenged via the airway using 1% OVA in saline for 30 min on days 28, 29, and 30 by ultrasonic nebulization. After the last of OVA challenges, AHR was assessed on day 32 (48 h after 1% OVA provocation) in each group. […] For comparison, sham-treated mice were challenged with saline instead of 1% OVA (non-challenged). […] AHR was assessed using two methods: (1) in anesthetized ventilated mice, AHR was assessed as previously described by measuring changes in the airway resistance (RL, cmH2O/ml/sec) and lung dynamic compliance (Cdyn, ml/cmH2O) after challenge with aerosolized methacholine (MCh, 0.78~25 mg/ml) using the FlexiVent system (SCIREQ, Montreal, Quebec, Canada). Anesthetized (urethane 600 mg/kg and chloralose 120 mg/kg, i.p.), tracheostomized (stainless-steel cannula, 18 G) mice were mechanically ventilated (at 150 breaths/min, with a tidal volume of 10 ml/kg, positive end-expiratory pressure of 3 cmH2O). (2) in unrestrained animals by barometric plethysmography using a whole-body plethysmograph (WBP) and analyzed using software of Life Science Suite P3 Analysis Modules (Gould, LDS Test and Measurement LLC, Valley View, OH, USA). Mice were placed into the main chamber of the WBP, and the baseline enhanced pause (Penh) value was determined.

SMILES: COc1cc(O)c2c(c1)O[C@H](c1ccc(OC)c(OC)c1)CC2=O [HDME, hesperetin-7,3'-O-dimethylether]
- IC50 (PDE3): 24.6 ± 3.5 µM
- mode of PDE4 inhibition (PDE4; Lineweaver-Burk analysis, inhibitor 1~10 μM): competitively inhibited
- Ki (PDE4; Lineweaver-Burk analysis, inhibitor 1~10 μM, substrate cAMP, read-out: dissociation constant for inhibitory binding (Ki), PDE4): 2.1 ± 1.3 µM
- IC50 (PDE4; homogenate of guinea pig lungs or hearts): 3 ± 0.9 µM
- IC50 (PDE2): > 100 µM
- effect on duration of xylazine/ketamine-induced anesthesia [1]: did not significantly influnce
- IC50 (PDE1): 22.1 ± 6.4 µM
- EC50 ([2]; 2 nM [3H]-rolipram, 30°C, 1 h, read-out: EC50 (PDE4H) for displacing [3H]-rolipram binding): 107 ± 39.5 µM
- PDE4H/PDE4L ratio (therapeutic ratio) ([2]; EC50 of [3H]-rolipram displacement / IC50 of PDE4 inhibition): 35.5
- Penh value at the baseline ([3]; 3 μmol/kg p.o.): 2.45 ± 0.04
- Penh value with PBS nebulization ([3]; 3 μmol/kg p.o.): 2.43 ± 0.05
- Penh value at the baseline ([3]; 10 μmol/kg p.o.): 2.36 ± 0.05
- Penh value with PBS nebulization ([3]; 10 μmol/kg p.o.): 2.38 ± 0.06
- Penh value at the baseline ([3]; 30 μmol/kg p.o.): 2.43 ± 0.03
- Penh value with PBS nebulization ([3]; 30 μmol/kg p.o.): 2.44 ± 0.06
- effect on enhancement of Penh values induced by MCh ([3]; 3~30 μmol/kg p.o., 25 and 50 mg/ml MCh): dose-dependently and significantly attenuated
